Data on 13 molecules can be found in ChEMBL document CHEMBL3132744, “Structureactivity relationship studies of miniproteins targeting the androgen receptorcoactivator interaction” (Medchemcomm, 2013).

Square brackets hold non-standard residues; d marks the D form. Peptide text beside a SMILES is read from it. Phe(4-Cl) = N[C@@H](Cc1ccc(Cl)cc1)C(=O)O; Phe(2-Cl) = N[C@@H](Cc1ccccc1Cl)C(=O)O; Cha = N[C@@H](CC1CCCCC1)C(=O)O

For the assay, the target named is T1, Androgen receptor (Homo sapiens, UniProt P10275).
T1 sequence (P10275 whole entry): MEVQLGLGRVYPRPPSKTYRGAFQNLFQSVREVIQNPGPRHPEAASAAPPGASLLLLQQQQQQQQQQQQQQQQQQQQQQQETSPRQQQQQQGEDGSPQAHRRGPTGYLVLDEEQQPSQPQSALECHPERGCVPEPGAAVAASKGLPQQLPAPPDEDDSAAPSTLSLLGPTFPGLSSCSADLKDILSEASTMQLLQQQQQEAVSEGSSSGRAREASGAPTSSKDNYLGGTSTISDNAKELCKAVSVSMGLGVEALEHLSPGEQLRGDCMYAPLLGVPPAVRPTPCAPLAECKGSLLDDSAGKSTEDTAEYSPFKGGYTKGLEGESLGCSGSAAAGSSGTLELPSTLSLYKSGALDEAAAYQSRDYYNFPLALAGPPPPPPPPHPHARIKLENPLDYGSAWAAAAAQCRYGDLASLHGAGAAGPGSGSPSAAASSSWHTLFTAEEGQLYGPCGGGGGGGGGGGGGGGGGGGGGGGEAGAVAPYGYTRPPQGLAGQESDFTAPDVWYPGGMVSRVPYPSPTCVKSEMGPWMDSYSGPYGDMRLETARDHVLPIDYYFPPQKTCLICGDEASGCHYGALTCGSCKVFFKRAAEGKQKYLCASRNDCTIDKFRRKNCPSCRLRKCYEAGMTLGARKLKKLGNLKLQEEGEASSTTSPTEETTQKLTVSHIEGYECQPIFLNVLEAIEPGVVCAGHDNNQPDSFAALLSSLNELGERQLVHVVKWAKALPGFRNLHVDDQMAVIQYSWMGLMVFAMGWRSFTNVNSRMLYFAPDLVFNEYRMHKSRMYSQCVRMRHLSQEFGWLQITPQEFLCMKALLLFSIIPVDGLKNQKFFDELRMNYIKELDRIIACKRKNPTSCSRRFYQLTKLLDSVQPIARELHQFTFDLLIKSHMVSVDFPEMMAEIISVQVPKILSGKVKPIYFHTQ
The assay can be described thus: Displacement of fluorescein-CSSRFESLFAGEKESR from human androgen receptor-LBD after 1 hr by fluorescence polarization assay. A general note: In fluorescence polarisation assays a small probe gives low polarisation when free and higher when bound to something large.
On to `CC(C)C[C@H](NC(=O)[C@H](CS)NC(=O)[C@H](C)N)C(=O)N[C@@H](Cc1ccccc1)C(=O)N[C@@H](CC(N)=O)C(=O)N[C@@H](CS)C(=O)N[C@@H](CC(C)C)C(=O)N[C@@H](Cc1ccccc1)C(=O)N[C@@H](CCC(=O)O)C(=O)NCC(=O)N[C@@H](CC(N)=O)C(=O)N[C@@H](CC(=O)O)C(=O)N[C@@H](CCC(=O)O)C(=O)N[C@@H](CCC(=O)O)C(=O)N[C@H](C(=O)N[C@@H](CS)C(=O)N[C@@H](CCCCN)C(=O)N[C@@H](CCC(=O)O)C(=O)N[C@@H](Cc1c[nH]c2ccccc12)C(=O)N[C@@H](CS)C(=O)O)[C@@H](C)O` (H-ACLFNCLFEGNDEETCKEWC-OH), for which the affinity, expressed as Ki, was 3 µM. To `CC(C)C[C@H](NC(=O)[C@H](CS)NC(=O)[C@H](CC(N)=O)NC(=O)[C@H](Cc1ccccc1)NC(=O)[C@H](CCCNC(=N)N)NC(=O)[C@H](CS)NC(=O)[C@H](C)N)C(=O)N[C@@H](Cc1ccccc1)C(=O)N[C@@H](CCC(=O)O)C(=O)NCC(=O)N[C@@H](CC(N)=O)C(=O)N[C@@H](CC(=O)O)C(=O)N[C@@H](CCC(=O)O)C(=O)N[C@@H](CCC(=O)O)C(=O)N[C@H](C(=O)N[C@@H](CS)C(=O)N[C@@H](CCCCN)C(=O)N[C@@H](CCC(=O)O)C(=O)N[C@@H](Cc1c[nH]c2ccccc12)C(=O)N[C@@H](CS)C(=O)O)[C@@H](C)O` (H-ACRFNCLFEGNDEETCKEWC-OH) belongs 12 µM; to `CC(C)C[C@H](NC(=O)[C@H](CS)NC(=O)[C@H](Cc1ccccc1)NC(=O)[C@H](Cc1ccccc1)NC(=O)[C@H](Cc1ccc(O)cc1)NC(=O)[C@H](CS)NC(=O)[C@H](C)N)C(=O)N[C@@H](Cc1ccccc1)C(=O)N[C@@H](CCC(=O)O)C(=O)NCC(=O)N[C@@H](CC(N)=O)C(=O)N[C@@H](CC(=O)O)C(=O)N[C@@H](CCC(=O)O)C(=O)N[C@@H](CCC(=O)O)C(=O)N[C@H](C(=O)N[C@@H](CS)C(=O)N[C@@H](CCCCN)C(=O)N[C@@H](CCC(=O)O)C(=O)N[C@@H](Cc1c[nH]c2ccccc12)C(=O)N[C@@H](CS)C(=O)O)[C@@H](C)O` (H-ACYFFCLFEGNDEETCKEWC-OH), 4 µM; to `CC(C)C[C@H](NC(=O)[C@H](CS)NC(=O)[C@H](Cc1cnc[nH]1)NC(=O)[C@H](Cc1ccccc1)NC(=O)[C@H](Cc1ccc(O)cc1)NC(=O)[C@H](CS)NC(=O)[C@H](C)N)C(=O)N[C@@H](Cc1ccccc1)C(=O)N[C@@H](CCC(=O)O)C(=O)NCC(=O)N[C@@H](CC(N)=O)C(=O)N[C@@H](CC(=O)O)C(=O)N[C@@H](CCC(=O)O)C(=O)N[C@@H](CCC(=O)O)C(=O)N[C@H](C(=O)N[C@@H](CS)C(=O)N[C@@H](CCCCN)C(=O)N[C@@H](CCC(=O)O)C(=O)N[C@@H](Cc1c[nH]c2ccccc12)C(=O)N[C@@H](CS)C(=O)O)[C@@H](C)O` (H-ACYFHCLFEGNDEETCKEWC-OH), 7 µM. `CC(C)C[C@H](NC(=O)[C@H](CS)NC(=O)[C@H](CC(N)=O)NC(=O)[C@H](Cc1ccccc1)NC(=O)[C@H](Cc1ccc(O)cc1)NC(=O)[C@H](CS)NC(=O)[C@H](C)N)C(=O)N[C@@H](Cc1ccccc1)C(=O)N[C@@H](CCC(=O)O)C(=O)NCC(=O)N[C@@H](CCC(=O)O)C(=O)N[C@@H](CC(=O)O)C(=O)N[C@@H](CCC(=O)O)C(=O)N[C@@H](CCC(=O)O)C(=O)N[C@H](C(=O)N[C@@H](CS)C(=O)N[C@@H](CCCCN)C(=O)N[C@@H](CCC(=O)O)C(=O)N[C@@H](Cc1c[nH]c2ccccc12)C(=O)N[C@@H](CS)C(=O)O)[C@@H](C)O` (H-ACYFNCLFEGEDEETCKEWC-OH): the Ki (in general, the dissociation constant of the complex between target and ligand, obtained from inhibition or displacement) is 0.2 µM. For `CC(C)C[C@H](NC(=O)[C@H](CS)NC(=O)[C@H](CC(N)=O)NC(=O)[C@H](Cc1ccccc1)NC(=O)[C@H](Cc1ccc(O)cc1)NC(=O)[C@H](CS)NC(=O)[C@H](C)N)C(=O)N[C@@H](Cc1ccccc1)C(=O)N[C@@H](CCC(=O)O)C(=O)NCC(=O)N[C@@H](CC(N)=O)C(=O)N[C@@H](CC(=O)O)C(=O)N[C@@H](CCC(=O)O)C(=O)N[C@@H](CCC(=O)O)C(=O)N[C@H](C(=O)N[C@@H](CS)C(=O)N[C@@H](CCCCN)C(=O)N[C@@H](CCC(=O)O)C(=O)N[C@@H](CCCNC(=N)N)C(=O)N[C@@H](CS)C(=O)O)[C@@H](C)O` (H-ACYFNCLFEGNDEETCKERC-OH), the Ki was 2 µM. As to `CC(C)C[C@H](NC(=O)[C@H](CS)NC(=O)[C@H](CC(N)=O)NC(=O)[C@H](Cc1ccccc1)NC(=O)[C@H](Cc1ccc(O)cc1)NC(=O)[C@H](CS)NC(=O)[C@H](C)N)C(=O)N[C@@H](Cc1ccccc1)C(=O)N[C@@H](CCC(=O)O)C(=O)NCC(=O)N[C@@H](CC(N)=O)C(=O)N[C@@H](CC(=O)O)C(=O)N[C@@H](CCC(=O)O)C(=O)N[C@@H](CCC(=O)O)C(=O)N[C@H](C(=O)N[C@@H](CS)C(=O)N[C@@H](CCCCN)C(=O)N[C@@H](CCC(=O)O)C(=O)N[C@@H](Cc1c[nH]c2ccccc12)C(=O)N[C@@H](CS)C(=O)O)[C@@H](C)O` (H-ACYFNCLFEGNDEETCKEWC-OH), affinity was put at a Ki of 1.7 µM.

`CC(C)C[C@H](NC(=O)[C@H](CS)NC(=O)[C@H](CC(N)=O)NC(=O)[C@H](Cc1ccccc1)NC(=O)[C@H](Cc1ccc(O)cc1)NC(=O)[C@H](CS)NC(=O)[C@H](C)N)C(=O)N[C@@H](CC1CCCCC1)C(=O)N[C@@H](CCC(=O)O)C(=O)NCC(=O)N[C@@H](CC(N)=O)C(=O)N[C@@H](CC(=O)O)C(=O)N[C@@H](CCC(=O)O)C(=O)N[C@@H](CCC(=O)O)C(=O)N[C@H](C(=O)N[C@@H](CS)C(=O)N[C@@H](CCCCN)C(=O)N[C@@H](CCC(=O)O)C(=O)N[C@@H](Cc1c[nH]c2ccccc12)C(=O)N[C@@H](CS)C(=O)O)[C@@H](C)O` (H-ACYFNCL[Cha]EGNDEETCKEWC-OH): affinity was put at a Ki of 2.3 µM. To `CC(C)C[C@H](NC(=O)[C@H](CS)NC(=O)[C@H](CC(N)=O)NC(=O)[C@H](Cc1ccccc1)NC(=O)[C@H](Cc1ccc(O)cc1)NC(=O)[C@H](CS)NC(=O)[C@H](C)N)C(=O)N[C@@H](Cc1ccccc1Cl)C(=O)N[C@@H](CCC(=O)O)C(=O)NCC(=O)N[C@@H](CC(N)=O)C(=O)N[C@@H](CC(=O)O)C(=O)N[C@@H](CCC(=O)O)C(=O)N[C@@H](CCC(=O)O)C(=O)N[C@H](C(=O)N[C@@H](CS)C(=O)N[C@@H](CCCCN)C(=O)N[C@@H](CCC(=O)O)C(=O)N[C@@H](Cc1c[nH]c2ccccc12)C(=O)N[C@@H](CS)C(=O)O)[C@@H](C)O` (H-ACYFNCL[Phe(2-Cl)]EGNDEETCKEWC-OH) belongs 3 µM; to `CC(C)C[C@H](NC(=O)[C@H](CS)NC(=O)[C@H](CC(N)=O)NC(=O)[C@H](Cc1ccccc1)NC(=O)[C@H](Cc1ccc(O)cc1)NC(=O)[C@H](CS)NC(=O)[C@H](C)N)C(=O)N[C@@H](Cc1ccc(Cl)cc1)C(=O)N[C@@H](CCC(=O)O)C(=O)NCC(=O)N[C@@H](CC(N)=O)C(=O)N[C@@H](CC(=O)O)C(=O)N[C@@H](CCC(=O)O)C(=O)N[C@@H](CCC(=O)O)C(=O)N[C@H](C(=O)N[C@@H](CS)C(=O)N[C@@H](CCCCN)C(=O)N[C@@H](CCC(=O)O)C(=O)N[C@@H](Cc1c[nH]c2ccccc12)C(=O)N[C@@H](CS)C(=O)O)[C@@H](C)O` (H-ACYFNCL[Phe(4-Cl)]EGNDEETCKEWC-OH), 0.6 µM. The value for `CC(C)C[C@H](NC(=O)[C@H](CS)NC(=O)[C@@H](NC(=O)[C@H](Cc1ccccc1)NC(=O)[C@H](Cc1ccc(O)cc1)NC(=O)[C@H](CS)NC(=O)[C@H](C)N)C(C)C)C(=O)N[C@@H](Cc1ccccc1)C(=O)N[C@@H](CCC(=O)O)C(=O)NCC(=O)N[C@@H](CC(N)=O)C(=O)N[C@@H](CC(=O)O)C(=O)N[C@@H](CCC(=O)O)C(=O)N[C@@H](CCC(=O)O)C(=O)N[C@H](C(=O)N[C@@H](CS)C(=O)N[C@@H](CCCCN)C(=O)N[C@@H](CCC(=O)O)C(=O)N[C@@H](Cc1c[nH]c2ccccc12)C(=O)N[C@@H](CS)C(=O)O)[C@@H](C)O` (H-ACYFVCLFEGNDEETCKEWC-OH) was 3 µM.

The molecule `CC(C)C[C@H](NC(=O)[C@H](CC(C)C)NC(=O)[C@H](CS)NC(=O)[C@H](CC(N)=O)NC(=O)[C@H](CC(C)C)NC(=O)[C@H](Cc1ccc(O)cc1)NC(=O)[C@H](CS)NC(=O)[C@H](C)N)C(=O)N[C@@H](CCC(=O)O)C(=O)NCC(=O)N[C@@H](CC(N)=O)C(=O)N[C@@H](CC(=O)O)C(=O)N[C@@H](CCC(=O)O)C(=O)N[C@@H](CCC(=O)O)C(=O)N[C@H](C(=O)N[C@@H](CS)C(=O)N[C@@H](CCCCN)C(=O)N[C@@H](CCC(=O)O)C(=O)N[C@@H](Cc1c[nH]c2ccccc12)C(=O)N[C@@H](CS)C(=O)O)[C@@H](C)O` (H-ACYLNCLLEGNDEETCKEWC-OH) returned an inhibition constant (Ki) of 1.4 µM.

Turning to `CC(C)C[C@H](NC(=O)[C@H](CS)NC(=O)[C@H](CC(N)=O)NC(=O)[C@H](CC1CCCCC1)NC(=O)[C@H](Cc1ccc(O)cc1)NC(=O)[C@H](CS)NC(=O)[C@H](C)N)C(=O)N[C@@H](Cc1ccccc1)C(=O)N[C@@H](CCC(=O)O)C(=O)NCC(=O)N[C@@H](CC(N)=O)C(=O)N[C@@H](CC(=O)O)C(=O)N[C@@H](CCC(=O)O)C(=O)N[C@@H](CCC(=O)O)C(=O)N[C@H](C(=O)N[C@@H](CS)C(=O)N[C@@H](CCCCN)C(=O)N[C@@H](CCC(=O)O)C(=O)N[C@@H](Cc1c[nH]c2ccccc12)C(=O)N[C@@H](CS)C(=O)O)[C@@H](C)O` (H-ACY[Cha]NCLFEGNDEETCKEWC-OH), the Ki was found to be 3 µM.
